# Legend:
# Assay in all cases: relative viability (nuclei count vs DMSO), 5 days (fraction); higher = more cells survive
# [1] = tested on: NCI-H2347
# Outline: (§1)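 Five library-drug doses in √10 steps were combined with a fixed anchor-drug dose, or a single drug was given alone, by pin tool to lung cancer cell lines in 1536-well plates the day after seeding. Nuclei were stained and counted after 5 days. Relative viability is the nuclei count in treated wells over that in vehicle wells, taken as the median of duplicate plates.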
# [2] = tested on: NCI-H1651
# Outline: as §1
# [3] = tested on: NCI-H2126
# Outline: as §1
# [4] = tested on: HCC-15
# Outline: as §1
# [5] = tested on: NCI-H1993
# Outline: as §1
# [6] = tested on: PC-14
# Outline: as §1
# [7] = tested on: HCC-44
# Outline: as §1
# [8] = tested on: NCI-H1355
# Outline: as §1
# [9] = tested on: NCI-H838
# Outline: as §1
# [10] = tested on: SW 1573
# Outline: as §1
# [11] = tested on: UMC-11
# Outline: as §1
# [12] = tested on: HOP-62
# Outline: as §1
# [13] = tested on: LC-2-ad
# Outline: as §1
# [14] = tested on: LU99A
# Outline: as §1
# [15] = tested on: NCI-H650
# Outline: as §1
# [16] = tested on: COR-L23
# Outline: as §1
# [17] = tested on: ABC-1
# Outline: as §1
# [18] = tested on: HARA
# Outline: as §1
# [19] = tested on: EPLC-272H
# Outline: as §1
# [20] = tested on: NCI-H1915
# Outline: as §1
# [21] = tested on: NCI-H2085
# Outline: as §1
# [22] = tested on: NCI-H2023
# Outline: as §1
compound,measurement,setting,value
Nc1ccn([C@@H]2O[C@H](CO)[C@@H](O)[C@@H]2O)c(=O)n1 [Cytarabine] + N=C(N)NC(=N)NCCc1ccccc1 [Phenformin] (partner 250 µM),relative viability,[1]; first compound 0.005 µM,0.381
same,relative viability,[1]; first compound 0.01581 µM,0.383
same,relative viability,[1]; first compound 0.05 µM,0.296
same,relative viability,[1]; first compound 0.1581 µM,0.273
same,relative viability,[1]; first compound 0.5 µM,0.291
same,relative viability,[2]; first compound 0.005 µM,0.304
same,relative viability,[2]; first compound 0.01581 µM,0.346
same,relative viability,[2]; first compound 0.05 µM,0.319
same,relative viability,[2]; first compound 0.1581 µM,0.2
same,relative viability,[2]; first compound 0.5 µM,0.18
same,relative viability,[3]; first compound 0.005 µM,0.472
same,relative viability,[3]; first compound 0.01581 µM,0.464
same,relative viability,[3]; first compound 0.05 µM,0.421
same,relative viability,[3]; first compound 0.1581 µM,0.277
same,relative viability,[3]; first compound 0.5 µM,0.271
same,relative viability,[4]; first compound 0.005 µM,0.454
same,relative viability,[4]; first compound 0.01581 µM,0.436
same,relative viability,[4]; first compound 0.05 µM,0.516
same,relative viability,[4]; first compound 0.1581 µM,0.349
same,relative viability,[4]; first compound 0.5 µM,0.31
same,relative viability,[5]; first compound 0.005 µM,0.588
same,relative viability,[5]; first compound 0.01581 µM,0.483
same,relative viability,[5]; first compound 0.05 µM,0.529
same,relative viability,[5]; first compound 0.1581 µM,0.515
same,relative viability,[5]; first compound 0.5 µM,0.422
same,relative viability,[6]; first compound 0.005 µM,0.499
same,relative viability,[6]; first compound 0.01581 µM,0.316
same,relative viability,[6]; first compound 0.05 µM,0.259
same,relative viability,[6]; first compound 0.1581 µM,0.0817
same,relative viability,[6]; first compound 0.5 µM,0.0908
same,relative viability,[7]; first compound 0.005 µM,0.161
same,relative viability,[7]; first compound 0.01581 µM,0.15
same,relative viability,[7]; first compound 0.05 µM,0.142
same,relative viability,[7]; first compound 0.1581 µM,0.113
same,relative viability,[7]; first compound 0.5 µM,0.108
same,relative viability,[8]; first compound 0.005 µM,0.353
same,relative viability,[8]; first compound 0.01581 µM,0.428
same,relative viability,[8]; first compound 0.05 µM,0.382
same,relative viability,[8]; first compound 0.1581 µM,0.254
same,relative viability,[8]; first compound 0.5 µM,0.261
same,relative viability,[9]; first compound 0.005 µM,0.482
same,relative viability,[9]; first compound 0.01581 µM,0.532
same,relative viability,[9]; first compound 0.05 µM,0.422
same,relative viability,[9]; first compound 0.1581 µM,0.241
same,relative viability,[9]; first compound 0.5 µM,0.201
same,relative viability,[10]; first compound 0.005 µM,0.342
same,relative viability,[10]; first compound 0.01581 µM,0.287
same,relative viability,[10]; first compound 0.05 µM,0.218
same,relative viability,[10]; first compound 0.1581 µM,0.131
same,relative viability,[10]; first compound 0.5 µM,0.109
same,relative viability,[11]; first compound 0.005 µM,0.245
same,relative viability,[11]; first compound 0.01581 µM,0.232
same,relative viability,[11]; first compound 0.05 µM,0.205
same,relative viability,[11]; first compound 0.1581 µM,0.195
same,relative viability,[11]; first compound 0.5 µM,0.159
same,relative viability,[12]; first compound 0.005 µM,0.506
same,relative viability,[12]; first compound 0.01581 µM,0.486
same,relative viability,[12]; first compound 0.05 µM,0.399
same,relative viability,[12]; first compound 0.1581 µM,0.156
same,relative viability,[12]; first compound 0.5 µM,0.152
same,relative viability,[13]; first compound 0.005 µM,0.454
same,relative viability,[13]; first compound 0.01581 µM,0.466
same,relative viability,[13]; first compound 0.05 µM,0.49
same,relative viability,[13]; first compound 0.1581 µM,0.344
same,relative viability,[13]; first compound 0.5 µM,0.261
same,relative viability,[14]; first compound 0.005 µM,1.07
same,relative viability,[14]; first compound 0.01581 µM,0.747
same,relative viability,[14]; first compound 0.05 µM,0.871
same,relative viability,[14]; first compound 0.1581 µM,0.775
same,relative viability,[14]; first compound 0.5 µM,0.808
same,relative viability,[15]; first compound 0.005 µM,0.448
same,relative viability,[15]; first compound 0.01581 µM,0.33
same,relative viability,[15]; first compound 0.05 µM,0.185
same,relative viability,[15]; first compound 0.1581 µM,0.194
same,relative viability,[15]; first compound 0.5 µM,0.187
same,relative viability,[16]; first compound 0.005 µM,0.328
same,relative viability,[16]; first compound 0.01581 µM,0.325
same,relative viability,[16]; first compound 0.05 µM,0.3
same,relative viability,[16]; first compound 0.1581 µM,0.146
same,relative viability,[16]; first compound 0.5 µM,0.137
same,relative viability,[17]; first compound 0.005 µM,0.238
same,relative viability,[17]; first compound 0.01581 µM,0.211
same,relative viability,[17]; first compound 0.05 µM,0.265
same,relative viability,[17]; first compound 0.1581 µM,0.223
same,relative viability,[17]; first compound 0.5 µM,0.174
same,relative viability,[18]; first compound 0.005 µM,0.359
same,relative viability,[18]; first compound 0.01581 µM,0.325
same,relative viability,[18]; first compound 0.05 µM,0.296
same,relative viability,[18]; first compound 0.1581 µM,0.196
same,relative viability,[18]; first compound 0.5 µM,0.0852
same,relative viability,[19]; first compound 0.005 µM,0.249
same,relative viability,[19]; first compound 0.01581 µM,0.277
same,relative viability,[19]; first compound 0.05 µM,0.26
same,relative viability,[19]; first compound 0.1581 µM,0.147
same,relative viability,[19]; first compound 0.5 µM,0.214
same,relative viability,[20]; first compound 0.005 µM,0.324
same,relative viability,[20]; first compound 0.01581 µM,0.328
same,relative viability,[20]; first compound 0.05 µM,0.329
same,relative viability,[20]; first compound 0.1581 µM,0.268
same,relative viability,[20]; first compound 0.5 µM,0.245
same,relative viability,[21]; first compound 0.005 µM,0.746
same,relative viability,[21]; first compound 0.01581 µM,0.67
same,relative viability,[21]; first compound 0.05 µM,0.757
same,relative viability,[21]; first compound 0.1581 µM,0.413
same,relative viability,[21]; first compound 0.5 µM,0.362
same,relative viability,[22]; first compound 0.005 µM,0.287
same,relative viability,[22]; first compound 0.01581 µM,0.224
same,relative viability,[22]; first compound 0.05 µM,0.183
same,relative viability,[22]; first compound 0.1581 µM,0.0883
same,relative viability,[22]; first compound 0.5 µM,0.0962

# — the supplement of paper PMC10307832
